Experimental data reported in patent publication US20200255489A1, “Novel Senolytic Peptides” (priority 2017, published 2020).
Where a SMILES comes first, the peptide text is derived from it. [ ]: non-standard residue; d: D form.

Legend:
[1] = Acute Systemic Toxicity Test (ISO 10993-11); format: in vivo, mice (BALB/c); conditions: BALB/c
Experimental: Senolytic Peptides were evaluated for toxicity according to Acute Sytemic Toxicity Test (ISO 10993-11). This study was performed in strict accordance with the protocol approved by the TUBITAK-MAM Animal Ethics Committee. All the mice used in this study were of a BALB/c background at 8-12 weeks of age. All mice were kept in group housing until the start of the experiment after which they were placed in separate cages (5 mice per cage). The Senolytic Peptide (SEQ ID NO: 11) is administered intravenously using a mice model (BALB/c) at doses of 1, 10, 50 and 100 mg/kg and vehicle alone is also administered using single injections (n=5, per group). Control and Senolytic Peptide (SEQ ID NO: 11) injected mice were sacrificed 24 hours later for pathological examination. […] Blood samples were subsequently collected for determination and analysis of hematological and biochemical parameters. Plasma alanine aminotransferase (ALT), aspartate aminotransferase (AST), alkaline phosphatase (ALP) activities and blood urea, glucose, triglyceride levels were determined, inter alia, full hematological parameters.

[2] = tested on: senescent and non-senescent WI-38 cells; assay: XTT viability assay on Doxorubicin induced senescent and non-senescent WI-38 fibroblasts; format: cell-based, human; conditions: senescence by 100 NM Doxorubicin, total doses 0 to 100 pM on 3 consecutive days, XTT after 7 days
Experimental: (§1) WI-38 cells (ATCC #CCL-75, a diploid primary human fibroblast adherent cell line derived from fetal lung tissue) were treated with a chemotherapy agent, 100 NM Doxorubicin twice every other day to induce senescence. […] Later these cells were used for experiments comparing them to their non-Doxorubicin (non-senescent) treated counterparts. Senescent and non-senescent WI-38 fibroblasts were plated for XTT viability assays. 7000 senescent (obtained as described above) and 2000 non-senescent WI-38 fibroblasts were plated in 96-well plates incubated. The cells were treated with mock (PBS) or the Senolytic Peptide (SEQ ID NO: 11) at total doses ranging from 0 to 100 pM. The mock and peptide treatments were carried out for 3 consecutive days (24, 48 and 72 hours) after plating. After treatment period, the cells were incubated for 7 days until XTT-based viability was analyzed according to the manufacturer's instructions. […]
(§2) WI-38 cells (ATCC #CCL-75, a diploid primary human fibroblast adherent cell line derived from fetal lung tissue) and IMR90 cells (ATCC #CCL-186, a diploid primary human fibroblast adherent cell line derived from fetal lung tissue) were treated with a chemotherapy agent, 100 NM Doxorubicin twice every other day to induce senescence. […] After treatment period, the cells were incubated for 7 days until XTT-based viability was analyzed according to the manufacturer's instructions. […]

[3] = tested on: Doxorubicin induced renal senescence; assay: Doxorubicin induced chemotoxicity / renal senescence in mice; format: in vivo; conditions: male BALB/c mice, doxorubicin 8 mg/kg i.p. twice
Experimental: This study was performed in strict accordance with the protocol approved by the TUBITAK-MAM Animal Ethics Committee. All the mice used in this study were of a BALB/c background at 8-12 weeks of age. All mice were kept in group housing until the start of the experiment after which they were placed in separate cages (4 mice per cage). Only male mice were used throughout the study. Where feasible, littermates were used. All mice were randomly assigned to experimental group. Mice were fed ad libidum. Initial weights of the mice were recorded. Mice were divided into three groups (A-No Treatment, B-Doxorubicin Treatment+Mock Treatment, C-Doxorubicin Treatment+Senolytic Peptide Treatment). Doxorubicin induced chemotoxicity was used for the induction of renal senescence in mice. Mice in Group B and C were intraperitoneally administered with doxorubicin (8 mg/kg) twice (at 0 and 10th day). Weights of the mice were recorded three times a week. 24 days after 2nd Doxorubicin treatment, PBS (mock Treatment) was administered intravenously to Group B and Senolytic Peptide (SEQ ID NO: 12) (3×10 mg/kg) was administered to Group C in three days (every other day) (FIG. 17A). The mice health, activity and appearance were monitored and they were sacrificed 14 days later. Gross pathology and pathology of the mice analysed. Mice organs and tissues are flash-frozen in liquid nitrogen and embedded in OCT and kept at −80 C. 10 micron thick mid-sagittal cryo-sections of the kidney were taken and SA-B-Gal activity was assayed as in Example 1-3. Doxorubicin induced alopecia and caused weight loss in mice and both conditions are reversed upon the Senolytic Peptide (SEQ ID NO: 12) Treatment (FIG. 17B).

[4] = tested on: senescent and non-senescent IMR90 cells; assay: XTT viability assay on Doxorubicin induced senescent and non-senescent IMR90 fibroblasts; format: cell-based, human; conditions: senescence by 100 NM Doxorubicin, total doses 0 to 100 pM on 3 consecutive days, XTT after 7 days
Experimental: as §1, with “IMR-90 cells” for “WI-38 cells”, “(ATCC #CCL-186,” for “(ATCC #CCL-75,”, “with” for “with a chemotherapy agent,”, “day for senescence induction.” for “day to induce senescence.”, “non-senescent IMR90” for “non-senescent WI-38”, “Senolytic Peptide(s)” for “Senolytic Peptide (SEQ ID NO: 11)”
as §2

[5] = peptide 3x10 mg/kg every other day

Compound	toxicity to the physical appearance of the mice ([1]; single intravenous injection 1, 10, 50 and 100 mg/kg, within 24 hours of injection)	toxicity by hematological parameters, AST, ALT, ALP levels and gross pathology ([1]; single intravenous injection, even at 100 mg/kg, 24 hours)	effect on viability of senescent versus non-senescent cells (XTT) [2]	Doxorubicin induced alopecia [3, 5]	Doxorubicin induced weight loss [3, 5]	senescent cells in kidneys (SA-B-Gal activity of kidney sections) ([3]; peptide 3x10 mg/kg, sacrificed 14 days later)	effect on viability of senescent versus non-senescent cells (XTT) [4]
CC(C)C[C@H](NC(=O)[C@@H](NC(=O)[C@H](CC(C)C)NC(=O)[C@H](CCCNC(=N)N)NC(=O)[C@H](CCCCN)NC(=O)[C@H](CCCNC(=N)N)NC(=O)[C@@H]1CCCN1C(=O)[C@H](C)NC(=O)[C@H](CCCNC(=N)N)NC(=O)[C@H](CCCNC(=N)N)NC(=O)[C@H](CCCNC(=N)N)NC(=O)[C@H](CCCNC(=N)N)NC(=O)[C@H](CCCNC(=N)N)NC(=O)[C@H](CCCNC(=N)N)NC(=O)[C@H](CCCNC(=N)N)NC(=O)[C@H](CCCNC(=N)N)NC(=O)[C@H](CCCNC(=N)N)NC(=O)[C@H](CCCNC(=N)N)NC(=O)[C@H](CCCNC(=N)N)NC(=O)[C@H](CCCNC(=N)N)NC(=O)[C@H](CCCNC(=N)N)NC(=O)[C@H](CCCNC(=N)N)NC(=O)CNC(=O)[C@H](Cc1c[nH]c2ccccc12)NC(=O)[C@H](C)NC(=O)[C@H](CCCNC(=N)N)NC(=O)[C@H](CCCNC(=N)N)NC(=O)[C@H](CCCNC(=N)N)NC(=O)[C@H](CCCNC(=N)N)NC(=O)CNC(=O)CNC(=O)[C@H](CCCCN)NC(=O)[C@H](CCCNC(=N)N)NC(=O)[C@@H]1CCCN1C(=O)[C@H](N)CCCNC(=N)N)[C@@H](C)O)C(=O)O [SEQ ID NO: 11, dRPRKGGRRRR AWGRRRRRRR RRRRRRRAPR KRLTL] (H-[dR]PRKGGRRRRAWGRRRRRRRRRRRRRRAPRKRLTL-OH)	No toxicity	no toxicity	–	–	–	–	–
PRKGGSRRRAWGNQRYARLIRQAIESAPEKRLTLA (PRKGGSRRRAWGNQRYARLIRQAIESAPEKRLTLA; Based on Homo sapiens sequence) [SEQ ID NO: 12]	–	–	selectively decreased the viability	reversed	reversed	cleared senescent cells in kidneys	selectively decreased the viability
